# Assay results taken from publication PMC7187199, “Investigation of a New Type I Baeyer–Villiger Monooxygenase from Amycolatopsis thermoflava Revealed High Thermodynamic but Limited Kinetic Stability” (Chembiochem, 2020).
# Experiments:
# TmCHMO = molecular target: T1, TmCHMO (Thermocrispum municipale, UniProt A0A1L1QK39); experiment: NADPH oxidation at […] nm; type: biochemical; conditions: 0.5 mM cyclohexanone, 100 μM NADPH, 10 μM FAD, 50 mM Tris-HCl, 30 °C
# T1 sequence (A0A1L1QK39 1-541): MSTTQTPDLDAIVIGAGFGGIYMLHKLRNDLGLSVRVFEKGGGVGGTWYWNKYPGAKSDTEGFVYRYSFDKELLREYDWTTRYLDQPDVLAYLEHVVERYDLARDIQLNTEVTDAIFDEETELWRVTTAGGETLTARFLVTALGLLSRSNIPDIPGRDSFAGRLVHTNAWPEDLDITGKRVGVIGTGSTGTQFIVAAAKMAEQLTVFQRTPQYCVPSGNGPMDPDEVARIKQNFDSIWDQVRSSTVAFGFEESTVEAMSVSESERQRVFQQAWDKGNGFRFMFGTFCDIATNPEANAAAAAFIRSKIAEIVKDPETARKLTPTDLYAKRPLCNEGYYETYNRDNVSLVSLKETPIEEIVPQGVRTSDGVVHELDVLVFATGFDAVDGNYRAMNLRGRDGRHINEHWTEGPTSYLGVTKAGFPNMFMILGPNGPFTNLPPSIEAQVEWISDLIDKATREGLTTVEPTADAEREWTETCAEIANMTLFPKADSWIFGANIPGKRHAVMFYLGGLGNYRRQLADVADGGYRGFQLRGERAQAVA
# CHMOAcineto = molecular target: T2, CHMOAcineto (Acinetobacter johnsonii, UniProt P12015); experiment: NADPH oxidation at […] nm; type: biochemical; conditions: 100 μM NADPH, 50 mM Tris-HCl, 30 °C
# T2 construct: gene chnB
# T2 sequence (P12015 2-543): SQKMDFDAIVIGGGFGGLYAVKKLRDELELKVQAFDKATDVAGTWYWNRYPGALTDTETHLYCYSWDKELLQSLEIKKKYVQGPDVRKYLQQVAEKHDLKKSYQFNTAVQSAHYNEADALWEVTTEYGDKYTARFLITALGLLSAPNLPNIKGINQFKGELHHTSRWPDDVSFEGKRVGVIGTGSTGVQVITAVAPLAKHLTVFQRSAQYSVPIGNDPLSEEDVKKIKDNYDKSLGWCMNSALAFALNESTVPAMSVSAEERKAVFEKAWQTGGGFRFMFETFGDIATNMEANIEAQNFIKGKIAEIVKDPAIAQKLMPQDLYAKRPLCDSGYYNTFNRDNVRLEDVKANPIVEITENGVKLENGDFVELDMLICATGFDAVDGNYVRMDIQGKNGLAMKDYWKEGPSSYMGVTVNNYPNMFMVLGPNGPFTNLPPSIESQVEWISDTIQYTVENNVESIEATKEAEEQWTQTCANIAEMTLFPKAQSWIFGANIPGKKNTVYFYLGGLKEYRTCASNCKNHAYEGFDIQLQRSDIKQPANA
# O=C1CCCCC1 = experiment: purified protein; conditions: 100 μM NADPH, 50 mM Tris-HCl, 30 °C
Compound,NADPH oxidation at 340 nm (TmCHMO),Km (CHMOAcineto) [µM],Km (O=C1CCCCC1) [µM],kcat (O=C1CCCCC1) [s⁻¹]
O=C1CCCCC1 [cyclohexanone],The activity was comparable to that of TmCHMO,6.74 ± 2,,
BVMOFlava (Amycolatopsis thermoflava),,,0.53 ± 0.1,1.5 ± 0.1
